Consider two compounds from US8748417B2, “Amino-pyrrolidine-azetidine diamides as monoacylglycerol lipase inhibitors” (Janssen Pharmaceutica, NV, priority 2010, dated 2014).

The IC50 is the concentration at which inhibition is half-maximal.

Positions count from the first letter of the chain named. Bounds are passed on as bounds.

For test [1], the system named is murine model of acute inflammation. The conditions noted are these: Comelli et al., Brit J Pharmacol, 2007; cited from earlier work.
Test [2] relates to MGL (rat brain homogenate). The experiment in a line: 2-AG accumulation assay in rat brain homogenate. The class given is biochemical. The settings on record: compound 1 μM, percent of vehicle 2-AG accumulation. The method in brief:
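Rat brain homogenate was incubated with compound for 15 min at 37° C., after which CaCl2 was added to a final concentration of 10 mM and incubation continued for 15 min at 37° C. in 5 mL total. Reactions were stopped with 6 mL of 2:1 chloroform/methanol, and 2-AG accumulated in the organic phase was quantified by HPLC/MS.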

The target of test [3] is T1, purified wild type MGL (wt-MGLL 6H-11-313) (Homo sapiens, UniProt Q99685).
T1 construct: purified wild type MGL (wt-MGLL 6H-11-313)
T1 sequence (Q99685 1-303): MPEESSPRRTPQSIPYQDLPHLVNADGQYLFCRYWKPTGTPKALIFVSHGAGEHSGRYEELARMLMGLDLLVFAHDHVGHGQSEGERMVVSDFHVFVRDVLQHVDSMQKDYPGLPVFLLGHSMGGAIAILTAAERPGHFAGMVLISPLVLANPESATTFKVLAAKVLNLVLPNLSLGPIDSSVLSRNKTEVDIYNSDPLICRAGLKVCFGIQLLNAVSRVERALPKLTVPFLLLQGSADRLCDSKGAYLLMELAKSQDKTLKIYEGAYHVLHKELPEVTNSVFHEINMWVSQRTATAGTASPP
The experiment in a line: MGL enzyme activity assay (4MU-B cleavage), wild type MGL. The class given is biochemical. The settings on record: wild type MGL 5 nM, 4MU-B 10 μM, 37° C.; read-out: MGL wild type inh IC50. The method in brief:
(§1)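 Enzyme in 20 mM PIPES pH 7.0, 150 mM NaCl, 0.001% Tween 20 with 4MU-B at 10 μM final and MGL at 5 nM final; compounds 17 to 0.0003 μM final, enzyme added last. Fluorescence (ex 335/em 440 nm) followed at 37° C for 5 min; IC50 from fit of fractional activity versus inhibitor concentration.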

Test [4] has as its system CFA-induced paw radiant heat hypersensitivity. The experiment in a line: CFA-induced paw radiant heat hypersensitivity. Format: in vivo. The settings on record: rat, 30 mg/kg p.o., 20% HPβCD, last time point 300 min. How it is done: Each rat was placed in a test chamber on a warm glass surface and allowed to acclimate for approximately 10 min. A radiant thermal stimulus (beam of light) was focused through the glass onto the plantar surface of each hind paw in turn. The thermal stimulus was automatically shut off by a photoelectric relay when the paw was moved or when the cut-off time was reached (20 sec for radiant heat at ˜5 amps). An initial (baseline) response latency to the thermal stimulus was recorded for each animal prior to the injection of complete Freund's adjuvant (CFA). Twenty-four hours following intraplantar CFA injection, the response latency of the animal to the thermal stimulus was re-evaluated and compared to the animal's baseline response time. […] Immediately following the post-CFA latency assessment, the indicated test compound or vehicle was administered orally. Post-compound treatment withdrawal latency was assessed at fixed time intervals, typically 30, 60, 120, 180, and 300 min. • The percent reversal (% R) of hypersensitivity was calculated in one of two different ways: 1) using group mean values or 2) using individual animal values. More specifically: • Method 1. For all compounds, the % R of hypersensitivity was calculated using the mean value for groups of animals at each time point according to the following formula: % reversal=[(group treatment response−group CFA response)/(group baseline response−group CFA response)]×100 • Results are given for the maximum % reversal observed for each compound at any time point tested. • Method 2. For some compounds, the % R of hypersensitivity was calculated separately for each animal according to the following formula: % reversal=[(individual treatment response−individual CFA response)/(individual baseline response−individual CFA response)]×100. • Results are given as a mean of the maximum % reversal values calculated for each individual animal.

The target in test [5] is T2, purified mutant MGL (mut-MGLL 11-313 L179S L186S) (Homo sapiens, UniProt Q99685, L169S/L176S).
T2 construct: purified mutant MGL (mut-MGLL 11-313 L179S L186S)
T2 sequence (Q99685 1-303 L169S/L176S): T1 sequence (Q99685 1-303) with L169S, L176S
As to the kind of experiment: MGL enzyme activity assay (4MU-B cleavage), mutant MGL. Format: biochemical. The settings on record: mutant MGL 5 nM, 4MU-B 10 μM, 37° C.; read-out: MGL mutant inh IC50. The method in brief: as §1

In the case of `O=C(Nc1cccc(-c2ccccc2)c1)OC1CCCCC1` [URB602], the antinociceptive effect result in test [1] is recorded as “showed an antinociceptive effect”.
Take `O=C(c1ccc(-c2cccc(C(F)(F)F)c2)cc1)N1CC(N[C@H]2CCN(C(=O)c3ccccc3)C2)C1` [Cpd 16, (3S)-1-(Phenylcarbonyl)-N-(1-{[3′-(trifluoromethyl)biphenyl-4-yl]carbonyl}azetidin-3-yl)pyrrolidin-3-amine]: the “Rat Brain 2AG % VehCntrl (%) @1 μM” value in test [2] is recorded as 220%. Besides, the IC50 in test [3] is 16.7 nM; in test [5], below 5 nM. The inhibition in vivo at 30 mg/kg in test [4] (po, 5 h, group mean values, read-out: Method 1: peak % reversal) worked out at 78%. In addition, the “Method 2: peak % reversal” value in test [4] (individual animal values) amounted to 87.7%.
